According to patent US9023821B2, “Use of MicroRNA for treating diseases associated with a dysfunction of the cilia in multiciliated epithelial cells” (Centre National de la Recherche Scientifique, priority 2009, dated 2015):

Key:
[1] = tested on: basal cells and pyramidal cells of the airway epithelium; test: miRNA expression in sorted basal cells versus pyramidal cells (ciliated + secretory), HTS and Agilent chips; parameters: species or system human; details: for Modulation of expression of the miRNAs in pyramidal cells (323(−)) relative to basal cells 323(+): HTS and Agilent chips; for Intensity of the level of expression in log2 in pyramidal cells (323(−)): pyramidal cells (ciliated + secretory)
Procedure: After dissociation of the stroma of nasal polyps, the epithelial cells (about 20.10^6) are incubated in PBS-BSA-EDTA for 30 min and then incubated with labeled antibody CD151-PE and anti-TF (tissue factor)-FITC for 20 min, 4° C. (see Hajj, R. et al., Stem Cells 25, 139-148 (2007)). After washing twice, the cells are taken up in PBS-EDTA and incubated with DAPI for labeling the cells whose integrity has been altered.
Cell sorting was carried out on the FACSAria sorter (BD Biosciences) equipped with 3 lasers, blue, red and violet. Dead cells, aggregates and double cells were excluded. The doubly positive population of basal cells (CD151+/FT+) and the negative population of cylindrical cells (containing ciliated cells and mucus-secreting cells) (CD151−/FT−) were selected and sorted at a rate of 5000 events/s ([…]). The purity and identity of the sorted cells were then verified by cytometry and immunocytochemistry.
Like the native airway epithelium, the model of differentiation in vitro used in these tests consists of basal cells, ciliated cells and mucus-secreting cells. In order to identify the repertoires of the miRNAs specific to each of the cellular types, the inventors used cell sorting by flow cytometry by means of specific markers (Hajj, R. et al. 2007). Using this technique, adult airway progenitor cells (corresponding a priori to basal cells) were isolated, selected and sorted (such cells appear doubly positive for tetraspanin CD151 and for the tissue factor) from the pyramidal cells (i.e. ciliated cells and mucus-secreting cells) which appear negative for these same markers. These were purified from polyps or from nasal conchae obtained from 3 separate donors.
After extracting the total RNAs, the expression profiles of the miRNAs were established by means of Agilent® commercial chips or by high-throughput sequencing (HTS). […] For the first time, the inventors thus attribute a repertoire of expression of the miRNAs specifically to separate cellular types of the airway epithelium during differentiation.

[2] = tested on: human airway epithelial cells (HAECs); test: High-throughput sequencing (HTS) of miRNAs at four stages of differentiation of HAECs; details: for Modulation (ratio of the level of intensity of expression in log2 in two stages of differentiation) measured by high-throughput sequencing, D7 − D0 / Modulation (ratio of the level of intensity of expression in log2 in two stages of differentiation) measured by high-throughput sequencing, FC − D7 / Modulation (ratio of the level of intensity of expression in log2 in two stages of differentiation) measured by high-throughput sequencing, WD − D0 / Modulation (ratio of the level of intensity of expression in log2 in two stages of differentiation) measured by high-throughput sequencing, WD − FC / Level of intensity of expression in log2 measured by high-throughput sequencing, D0 / Level of intensity of expression in log2 measured by high-throughput sequencing, D7 / Level of intensity of expression in log2 measured by high-throughput sequencing, FC / Level of intensity of expression in log2 measured by high-throughput sequencing, WD: Table VI; for Level of intensity of expression in log2 At the differentiated stage (WD) measured in HTS: healthy human airway epithelial tissue; for Level of intensity of expression in log2 measured by high-throughput sequencing, D0: stage D0; for Level of intensity of expression in log2 measured by high-throughput sequencing, D7: stage D7; for Level of intensity of expression in log2 measured by high-throughput sequencing, FC: stage FC; for Level of intensity of expression in log2 At the differentiated stage (WD) measured in HTS / Level of intensity of expression in log2 measured by high-throughput sequencing, WD: stage WD
Text: The total RNAs were extracted from HAECs cultivated at the air-liquid interface at four stages of differentiation: ALI-D0 (0 day), ALI-D7 (7 days), ALI-FC (during appearance of the first cilia at about 14 days) and ALI-WD (wholly differentiated at about 21 days). The cells are lysed in reagent with Trizol® (Invitrogen). The total RNAs containing small RNAs and microRNAs are purified on Qiagen RNEasy columns (Qiagen) according to the supplier's instructions.
The total RNAs containing small RNAs and microRNAs are isolated as before. The procedure is based on the Applied Biosystems Ligase-Enhanced Genome Detection technology (LEGenD™); the SOLiD™ Small RNA Expression kit (Applied Biosystems, France) was used. With this method it is possible to convert the small RNAs of a sample into a library of double-stranded DNA; it was developed by Applied Biosystems SOLiD™ System for a new generation of high-throughput sequencing.
The high-throughput sequencing of the microRNAs was carried out according to the supplier's recommendations. Briefly, the total RNAs containing the small RNAs are hybridized (65° C., 10 min, then at 16° C., 5 min) and ligated (16° C., 2-16 h in a thermocycler) with the Adaptor Mix A for producing a matrix for sequencing the 5′ end of the small RNAs, or with the Adaptor Mix B for sequencing the 3′ end. The samples are then reverse-transcribed (42° C., 30 min) to synthesize the complementary DNA (cDNA). The library of small RNAs is amplified by PCR and after migration on polyacrylamide gel the amplified small RNAs are cut out and extracted from the gel according to their size (length of about 105-150 bases, according to the supplier's instructions), eluted and resuspended in nuclease-free water. The concentration of nucleic acids is then measured and normalized before proceeding with preparation of the samples for sequencing.
For each microRNA sequenced, the number of sequences of the 5p strand and of the 3p strand of the microRNA was normalized to 10^6 sequences and converted to percentage abundance of expression for each of the microRNAs. The data were then normalized according to a linear model and an empirical Bayesian method using software R. For subsequent analyses, only the microRNAs were retained for which the percentage expression (or abundance) is greater than 1% of the total of the microRNAs in at least one culture condition, with a |Log2 Ratio| below 0.5 and an adjusted P-value below 0.05.

[3] = tested on: human airway epithelial cells (HAECs); test: Agilent miRNA chips, miRNA expression at four stages of differentiation of HAECs; details: for Modulation (ratio of the level of intensity of expression in log2 in two stages of differentiation) measured with the Agilent chips, D7 − D0 / Modulation (ratio of the level of intensity of expression in log2 in two stages of differentiation) measured with the Agilent chips, FC − D7 / Modulation (ratio of the level of intensity of expression in log2 in two stages of differentiation) measured with the Agilent chips, WD − D0 / Modulation (ratio of the level of intensity of expression in log2 in two stages of differentiation) measured with the Agilent chips, WD − FC / Level of intensity of expression in log2 measured with the Agilent chips, D0 / Level of intensity of expression in log2 measured with the Agilent chips, D7 / Level of intensity of expression in log2 measured with the Agilent chips, FC / Level of intensity of expression in log2 measured with the Agilent chips, WD: Table VI; for Level of intensity of expression in log2 measured with the Agilent chips, D0: stage D0; for Level of intensity of expression in log2 measured with the Agilent chips, D7: stage D7; for Level of intensity of expression in log2 measured with the Agilent chips, FC: stage FC; for Level of intensity of expression in log2 measured with the Agilent chips, WD: stage WD
Text: In parallel with the high-throughput sequencing of the microRNAs, the repertoire of expression of the microRNAs (microRNAome) is investigated using the technology of Agilent® microRNA chips. For this, RNA samples from the same patients as before were used, labeled and hybridized on Agilent® miRNA chips (Human miRNA Microarray v2, containing 866 human miRNAs and 89 human viral miRNAs, i.e. all the human miRNAs contained and referenced in Sanger miRBase v.12.0, Agilent Technologies, France) using the “miRNA labeling and hybridization” kit, following the supplier's instructions (Agilent Technologies).
The inventors then used the Agilent miRNA chips to investigate the repertoire of expression of the miRNAs of the human airway epithelium and compare the results obtained in high-throughput sequencing with those obtained with Agilent® commercial miRNA chips.

Substance | Modulation of expression of the miRNAs in pyramidal cells (323(−)) relative to basal cells 323(+) [1] | Intensity of the level of expression in log2 in basal cells (323(+)) [1] [log2] | Intensity of the level of expression in log2 in pyramidal cells (323(−)) [1] [log2] | Modulation (ratio of the level of intensity of expression in log2 in two stages of differentiation) measured by high-throughput sequencing, D7 − D0 [2] [log2] | Modulation (ratio of the level of intensity of expression in log2 in two stages of differentiation) measured by high-throughput sequencing, FC − D7 [2] [log2] | Modulation (ratio of the level of intensity of expression in log2 in two stages of differentiation) measured by high-throughput sequencing, WD − D0 [2] [log2] | Modulation (ratio of the level of intensity of expression in log2 in two stages of differentiation) measured by high-throughput sequencing, WD − FC [2] [log2] | Level of intensity of expression in log2 At the differentiated stage (WD) measured in HTS [2] [log2] | Level of intensity of expression in log2 measured by high-throughput sequencing, D0 [2] [log2] | Level of intensity of expression in log2 measured by high-throughput sequencing, D7 [2] [log2] | Level of intensity of expression in log2 measured by high-throughput sequencing, FC [2] [log2] | Level of intensity of expression in log2 measured by high-throughput sequencing, WD [2] [log2] | Modulation (ratio of the level of intensity of expression in log2 in two stages of differentiation) measured with the Agilent chips, D7 − D0 [3] [log2] | Modulation (ratio of the level of intensity of expression in log2 in two stages of differentiation) measured with the Agilent chips, FC − D7 ([3]; FC − D7) [log2] | Modulation (ratio of the level of intensity of expression in log2 in two stages of differentiation) measured with the Agilent chips, WD − D0 [3] [log2] | Modulation (ratio of the level of intensity of expression in log2 in two stages of differentiation) measured with the Agilent chips, WD − FC ([3]; WD − FC) [log2] | Level of intensity of expression in log2 measured with the Agilent chips, D0 [3] [log2] | Level of intensity of expression in log2 measured with the Agilent chips, D7 [3] [log2] | Level of intensity of expression in log2 measured with the Agilent chips, FC [3] [log2] | Level of intensity of expression in log2 measured with the Agilent chips, WD [3] [log2] | further results
hsa-let-7e: human miRNA, SEQ ID No. 160 (UGAGGUAGGAGGUUGUAUAGUU; expressed or natural sequence; listed as Homo sapiens) | −1.42 | 8.24 | 6.82 | 0.38 | −0.27 | 0.18 | 0.07 | 7.60 | 7.42 | 7.80 | 7.53 | 7.60 | 1.38 | −0.57 | 0.95 | 0.15 | 8.53 | 9.91 | 9.34 | 9.48 | Modulation (ratio of the level of intensity of expression in log2 at two stages of differentiation), FC − D7 ([3]; FC − D7, Agilent miRNA chips, Table V): −0.57 log2; Modulation (ratio of the level of intensity of expression in log2 at two stages of differentiation), WD − FC ([3]; WD − FC, Agilent miRNA chips, Table V): 0.15 log2
hsa-miR-92b: human miRNA, SEQ ID No. 49 (UAUUGCACUCGUCCCGGCCUCC; expressed or natural sequence; listed as Homo sapiens) | 1.67 | 0.40 | 2.07 | 1.21 | 4.12 | 5.93 | 0.60 | 0.01 | 7.49 | 8.70 | 12.82 | 13.42 | 0.48 | 4.21 | 4.39 | −0.29 | 0.10 | 0.57 | 4.78 | 4.49 | Modulation (ratio of the level of intensity of expression in log2 in two stages of differentiation), D7 − D0 ([2]; HTS): 1.21 log2; Modulation (ratio of the level of intensity of expression in log2 in two stages of differentiation), FC − D7 ([2]; HTS): 4.12 log2; Modulation (ratio of the level of intensity of expression in log2 in two stages of differentiation), WD − FC ([2]; HTS): 0.60 log2; Abundance (%), D0 ([2]; HTS, ALI-D0): 0.04%; Abundance (%), D7 ([2]; HTS, ALI-D7): 0.09%; Abundance (%), FC ([2]; HTS, ALI-FC): 1.54%; Abundance (%), WD ([2]; HTS, ALI-WD): 1.77%
